The record followed here is patent publication US20240228499A1, “MASP-2 INHIBITORS AND METHODS OF USE” (Omeros Corporation, priority 2022, published 2024).

Test [1] deals with T1, human a-thrombin (Homo sapiens, UniProt P00734).
T1 construct: enzyme (human a-thrombin (BioPharm® Lab.)); purchased BioPharm Lab
The test can be described thus: Enzymatic assay for thrombin (fluorogenic peptide substrate Boc-VPR-AMC). Format: biochemical. The settings on record: room temperature, 20 mM Hepes pH 7.4, 20 min. The procedure: The thrombin assay utilizes a fluorogenic peptide substrate (Boc-VPR-AMC (R&D Systems) and was run at room temperature in an assay buffer containing 20 mM Hepes, pH 7.4, 140 mM NaCl and 0.1% Tween 20. Assay parameters were adjusted such that the assay was linear with respect to time, enzyme, and substrate concentrations. Under these optimized assays conditions, IC50 values were equivalent to Ki values, except in a few cases of “tight binding” inhibitors. Cases of “tight binding” or possible “slow binding” inhibitors were handled by the methods described in Copeland R.A. (2013) Evaluation of Enzyme Inhibitors in Drug Discovery. 2nd Ed. John Wiley and Sons, Inc., Chapters 5-7.
The thrombin assay protocol was carried out as follows. Test compounds were serially diluted in DMSO and then 100 nL of each dilution was transferred to the assay plate(s). 10 μL of Assay Buffer was added, followed by 15 μL of enzyme (human a-thrombin (BioPharm® Lab.)) in assay buffer. 15 μL of substrate in assay buffer was then added and the sample mixed to start the reaction. After 20 min at room temperature, 15 μL of a stop solution (0.1 M acetic acid) was added, the sample was mixed, and the plates were read on a SpectraMax® i3× Microplate Reader with the data exported as Excel files. Each assay plate included a “no inhibitor” (DMSO only) control, a “no enzyme” control, and a reference inhibitor control. % Activity values=100*(ave. test comp. fluorescence−ave. “no enz” fluorescence)/(ave. “DMSO only” fluorescence−ave. “no enz” fluorescence). IC50 and Ki values were very reproducible, with values falling well within +2-fold.

The target in test [2] is T2, MASP-2 (CCP1-CCP2-SP) (Homo sapiens, UniProt O00187).
T2 construct: 15 μL of Enzyme MASP-2 (CCP1-CCP2-SP) in Assay Buffer
T2 sequence (O00187 287-686 limits assumed): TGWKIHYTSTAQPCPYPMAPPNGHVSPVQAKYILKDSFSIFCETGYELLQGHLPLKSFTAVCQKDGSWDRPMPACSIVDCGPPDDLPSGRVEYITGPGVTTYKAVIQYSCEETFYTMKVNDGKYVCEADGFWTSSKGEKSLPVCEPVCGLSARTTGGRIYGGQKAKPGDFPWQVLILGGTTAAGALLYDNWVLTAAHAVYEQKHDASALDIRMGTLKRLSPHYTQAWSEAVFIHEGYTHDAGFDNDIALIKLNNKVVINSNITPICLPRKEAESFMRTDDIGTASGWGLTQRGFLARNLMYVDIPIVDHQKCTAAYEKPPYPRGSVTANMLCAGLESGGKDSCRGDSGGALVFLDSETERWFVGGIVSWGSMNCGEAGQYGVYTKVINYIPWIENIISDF
Description: Enzymatic assay for MASP-2 inhibitory activity (fluorogenic substrate). It is filed as biochemical. Particulars: room temperature, 20 mM Hepes pH 7.4, 20 min. The procedure: The MASP-2 assay utilizes a fluorogenic substrate, based on the cleavage site for its natural substrate C2. The assay was run at room temperature in an assay buffer containing 20 mM HEPES, pH 7.4, 140 mM NaCl and 0.1% Tween 20. Assay parameters were adjusted such that the assay was linear with respect to time, enzyme, and substrate concentrations. Under the optimized assays conditions, IC50 values were equivalent to Ki values, except in the few cases of “tight binding” inhibitors. Cases of “tight binding” or possible “slow binding” inhibitors were handled by the methods described in Copeland R. A. (2013) Evaluation of Enzyme Inhibitors in Drug Discovery. 2nd Ed., John Wiley and Sons, Inc., Chapters 5-7.
The MASP-2 assay protocol was carried out as follows. Test compounds were serially diluted in DMSO and then 100 nL of each dilution was transferred to the assay plate(s). 10 μL of Assay Buffer was added, followed by 15 μL of Enzyme MASP-2 (CCP1-CCP2-SP) in Assay Buffer. 15 μL of Substrate in Assay Buffer was then added and the mixture was mixed to start the reaction. After 20 min at room temperature, 15 μL of a stop solution (0.1 M acetic acid) was added, the sample was mixed, and the plates were read on a SpectraMax i3× Microplate Reader with the data exported as an Excel file. Each assay plate included a “no inhibitor” (DMSO only) control, a “no enzyme” control, and a reference inhibitor control. % Activity values=100*(average test comp. fluorescence−average “no enzyme” fluorescence)/(average “DMSO only” fluorescence−average “no enzyme” fluorescence). IC50 and Ki replicate values were very reproducible, with values well within +2-fold.

pKi: −log10 of the molar value. Structures can show the parent of a compound that is named as a salt.

Turning to `Cc1nc(N)ccc1CNC(=O)[C@@H]1CCc2ncc(NCc3ccccc3C(F)F)c(=O)n21` [Compound 27, (S)—N-((6-amino-2-methylpyridin-3-yl)methyl)-3-((2-(difluoromethyl)benzyl)amino)-4-oxo-4,6,7,8-tetrahydropyrrolo[1,2-a]pyrimidine-6-carboxamide, di-trifluoroacetate], the negative logarithm of the Ki (pKi) in test [1] is 5.60 to 6.30; in test [2] it was more than 6.30.

On to `Cc1cccc(CNc2cnc3n(c2=O)[C@H](C(=O)NCc2ccc(N)nc2C)CC3)c1` [Compound 60, (S)—N-((6-amino-2-methylpyridin-3-yl)methyl)-3-((3-methylbenzyl)amino)-4-oxo-4,6,7,8-tetrahydropyrrolo[1,2-a]pyrimidine-6-carboxamide], for which the pKi is 5.60 to 6.30 in test [1] and more than 6.30 in test [2].

With `COc1c(F)cc(F)cc1CNc1cnc2n(c1=O)[C@H](C(=O)NCc1ccc(N)nc1C)CC2` [Compound 35, (S)-N-((6-amino-2-methylpyridin-3-yl)methyl)-3-((3,5-difluoro-2-methoxybenzyl)amino)-4-oxo-4,6,7,8-tetrahydropyrrolo[1,2-a]pyrimidine-6-carboxamide, trifluoroacetate], the pKi in test [1] is 5.60 to 6.30; in test [2], more than 6.30.

For `COc1c(F)ccc(F)c1CNc1cnc2n(c1=O)[C@H](C(=O)NCc1ccc(N)nc1C)CC2` [Compound 36, (S)-N-((6-amino-2-methylpyridin-3-yl)methyl)-3-((3,6-difluoro-2-methoxybenzyl)amino)-4-oxo-4,6,7,8-tetrahydropyrrolo[1,2-a]pyrimidine-6-carboxamide, di-trifluoroacetate], the values for the pKi in test [1] and in test [2] were 5.00 to 5.60 and more than 6.30, respectively.

Take `Cc1nc(N)ccc1CNC(=O)[C@@H]1CCc2ncc(NCc3ccc(C(F)(F)F)cc3F)c(=O)n21` [Compound 43, (S)-N-((6-amino-2-methylpyridin-3-yl)methyl)-3-((2-fluoro-4-(trifluoromethyl)benzyl)amino)-4-oxo-4,6,7,8-tetrahydro-pyrrolo[1,2-a]pyrimidine-6-carboxamide, di-trifluoroacetate]: the pKi is 5.00 to 5.60 in test [1] and more than 6.30 in test [2].

For the molecule `Cc1cc(C#N)cc(CNc2cnc3n(c2=O)[C@H](C(=O)NCc2ccc(N)nc2C)CC3)c1` [Compound 8, (S)—N-((6-amino-2-methylpyridin-3-yl)methyl)-3-((3-cyano-5-methylbenzyl)amino)-4-oxo-4,6,7,8-tetrahydropyrrolo[1,2-a]pyrimidine-6-carboxamide], the pKi was 5.60 to 6.30 in test [1] and more than 6.30 in test [2].

Turning to `COc1cc(Cl)cc(CNc2cnc3n(c2=O)[C@@H](C(=O)N[C@H](C)c2ccc(N)nc2)CC3)c1` [Compound 77, (R)-N-((R)-1-(6-aminopyridin-3-yl)ethyl)-3-((3-chloro-5-methoxybenzyl)amino)-4-oxo-4,6,7,8-tetrahydropyrrolo[1,2-a]pyrimidine-6-carboxamide], the negative logarithm of the Ki (pKi) is less than 4.60 in test [1] and more than 6.30 in test [2].

Consider `Cc1cccc(CNc2cnc3n(c2=O)[C@H](C(=O)NCc2ccc(N)nc2C)CC3)c1C` [Compound 30, (S)-N-((6-amino-2-methylpyridin-3-yl)methyl)-3-((2,3-dimethylbenzyl)amino)-4-oxo-4,6,7,8-tetrahydropyrrolo[1,2-a]pyrimidine-6-carboxamide, trifluoroacetate], for which the negative-log Ki (pKi) in test [1] is 5.60 to 6.30; in test [2] it was more than 6.30.

As to `Cc1cc(C)cc(CNc2cnc3n(c2=O)[C@H](C(=O)N[C@@H](C)c2cc4c(s2)CNC4)CC3)c1` [Compound 107], the pKi in test [1] is less than 4.60; in test [2], more than 6.30.

Consider `Nc1ccc2c(n1)CC[C@H]2NC(=O)[C@@H]1CCc2ncc(NCc3cccc(CO)c3)c(=O)n21` [Compound 103], for which the pKi in test [1] was 5.00 to 5.60; in test [2] it was more than 6.30.

As to `Cc1ccc(CNc2cnc3n(c2=O)[C@H](C(=O)NCc2ccc(N)nc2C)CC3)cc1` [Compound 61], the pKi in test [1] is 5.00 to 5.60; in test [2], more than 6.30.

On to `Cc1cc(C)cc(CNc2cnc3n(c2=O)[C@@H](C(=O)NCc2ccc(N)nc2)CC3)c1` [Compound 79], for which the negative logarithm of the Ki (pKi) is less than 4.60 in test [1] and more than 6.30 in test [2].

`Cc1cc(C)cc(CNc2cnc3n(c2=O)[C@H](C(=O)NCc2ccnc(C)c2)CC3)c1` [Compound 19, (S)-3-((3,5-dimethylbenzyl)amino)-N-((2-methylpyridin-4-yl)methyl)-4-oxo-4,6,7,8-tetrahydropyrrolo[1,2-a]pyrimidine-6-carboxamide]: the negative-log Ki (pKi) in test [1] is less than 4.60; in test [2], 5.60 to 6.30.

Take `Cc1cc(C)cc(CNc2cnc3n(c2=O)[C@H](C(=O)NCc2cncc(Cl)c2)CC3)c1` [Compound 17, (S)—N-((5-chloropyridin-3-yl)methyl)-3-((3,5-dimethylbenzyl)amino)-4-oxo-4,6,7,8-tetrahydropyrrolo[1,2-a]pyrimidine-6-carboxamide, trifluoroacetate]: the pKi in test [1] and in test [2] was more than 6.30 each time.

For the molecule `Cc1nc(N)ccc1CNC(=O)[C@@H]1CCc2ncc(NCc3cccc(C(F)(F)F)c3F)c(=O)n21` [Compound 42, (S)-N-((6-amino-2-methylpyridin-3-yl)methyl)-3-((2-fluoro-3-(trifluoromethyl)benzyl)amino)-4-oxo-4,6,7,8-tetrahydro-pyrrolo[1,2-a]pyrimidine-6-carboxamide, di-trifluoroacetate], the results for the negative-log Ki (pKi) in test [1] and in test [2] were 5.60 to 6.30 and more than 6.30, respectively.

Turning to `CCN(Cc1cc(C)cc(OC)c1)c1cnc2n(c1=O)[C@H](C(=O)NCc1ccc(N)nc1C)CC2` [Compound 67, (S)—N-((6-amino-2-methylpyridin-3-yl)methyl)-3-(ethyl(3-methoxy-5-methylbenzyl)amino)-4-oxo-4,6,7,8-tetrahydropyrrolo[1,2-a]pyrimidine-6-carboxamide], the values for the pKi in test [1] and in test [2] were 4.60 to 5.00 and 5.60 to 6.30, respectively.

For `CC(=O)c1cccc(CNc2cnc3n(c2=O)[C@H](C(=O)N[C@@H]2CCc4nc(N)ccc42)CC3)c1` [Compound 104], the pKi in test [1] was 5.60 to 6.30; in test [2] it was more than 6.30.

With `COc1cc(Cl)cc(CNc2cnc3n(c2=O)[C@H](C(=O)N[C@@H]2CCc4nc(N)ccc42)CC3)c1` [Compound 87, (S)-N-((R)-2-amino-6,7-dihydro-5H-cyclopenta[b]pyridin-5-yl)-3-((3-chloro-5-methoxybenzyl)amino)-4-oxo-4,6,7,8-tetrahydro-pyrrolo[1,2-a]pyrimidine-6-carboxamide], the negative-log Ki (pKi) in test [1] and in test [2] was more than 6.30 throughout.

In the case of `Cc1nc(N)ccc1CNC(=O)[C@@H]1CCc2ncc(NCc3ccccc3F)c(=O)n21` [Compound 68], the figures for the pKi in test [1] and in test [2] were 5.00 to 5.60 and more than 6.30, respectively.

Turning to `Nc1ccc2c(n1)CC[C@H]2NC(=O)[C@@H]1CCc2ncc(NCc3cccc(F)c3)c(=O)n21` [Compound 101], the negative-log Ki (pKi) in test [1] is 5.60 to 6.30; in test [2], more than 6.30.

With `Cc1nc(N)ccc1CNC(=O)[C@@H]1CCc2ncc(NCc3c(F)cccc3F)c(=O)n21` [Compound 32, (S)-N-((6-amino-2-methylpyridin-3-yl)methyl)-3-((2,6-difluorobenzyl)amino)-4-oxo-4,6,7,8-tetrahydropyrrolo[1,2-a]pyrimidine-6-carboxamide, di-trifluoroacetate], the pKi in test [1] was 4.60 to 5.00; in test [2], more than 6.30.

Take `Cc1cccc(CNc2cnc3n(c2=O)[C@H](C(=O)NCc2ccc(N)nc2C)CC3)c1F` [Compound 33, (S)-N-((6-amino-2-methylpyridin-3-yl)methyl)-3-((2-fluoro-3-methylbenzyl)amino)-4-oxo-4,6,7,8-tetrahydropyrrolo[1,2-a]pyrimidine-6-carboxamide, di-trifluoroacetate]: the negative logarithm of the Ki (pKi) in test [1] was 5.60 to 6.30; in test [2], more than 6.30.

`C#Cc1cccc(CNc2cnc3n(c2=O)[C@H](C(=O)N[C@@H]2CCc4nc(N)ccc42)CC3)c1` [Compound 98]: the pKi in test [1] and in test [2] was more than 6.30 throughout.

By pKi is commonly meant the negative decadic logarithm of the Ki, by convention in mol/L.
